Biological target: T1, 14-3-3γ/ERRγ complex (Homo sapiens, UniProt P61981+P62508)
T1 construct: made in house; host or cells: E. coli NiCo21 (DE3)
Test: Intact mass spectrometry (QTOF-MS) crosslinking of 14-3-3γ and ERRγ
Format: biochemical
Settings: 14-3-3γ 5 μM; for consumption of apo-14-3-3γ into crosslinked ternary complex: ERRγ 25 μM, compound 50 μM, NaCNBH3 reduction, 4 h
Protocol: To further confirm the covalent crosslinking in solution, we performed intact mass spectrometry (MS) on the 14-3-3γ/ERRγ/5 and the 14-3-3γ/ERRγ/10 protein complexes. To ensure detection of the acid-labile imine-bonded complexes, the covalent imine bond was reduced in situ to the corresponding secondary amine using sodium cyanoborohydride. Samples were incrementally taken over 4 h and analyzed with high-resolution MS to determine crosslinking of the 14-3-3γ/ERRγ complex (Figure 2f–h and Figures S8 and S9). Intact MS analysis confirmed time-dependent crosslinking of the ternary complex (14-3-3γ/ERRγ/lock). […] A similar result was also observed for 10 (calculated mass: 33,080.4 Da) (Figure S11a–c).
Figure S8a. QTOF-MS analysis of 14-3-3/ERRg/5 ternary complex formation. LC-MS analysis of time-dependent crosslinking experiment of 14-3-3γ (5 µM) and ERRγ (25 µM) phosphopeptide by compound 5 (50 µM). Controls of just apo 14-3-3γ protein and protein incubated with compound 5 without ERRγ peptide are added. (Left) Chromatograms obtained for each sample after x amount of incubation. […] Calculated mass 14 -3-3γ […]
Figure S9. […] Based on the determined peak intensity of apo 14-3-3γ (peak A) and 14-3-3γ in complex with ERRg and staple 5 (peak B), the percentage of ternary complex is determined for each time point. […]
Different Scanning Fluorimetry (DSF) assays were performed using 40 µL samples containing 5 µM 14-3-3γ, 50 µM ERRγ pS179 9-mer peptide, 200 µM compound (or 1% DMSO) and 5x ProteoOrange (Lumiprobe, 5000x stock in DMSO) in 10 mM Hepes, 150 mM NaCl, 50 µM TCEP (pH 8.0). […] Fluorescence intensity was determined using excitation 470/40 nm and emission 570/20 nm filters. Based on these melting curves, the negative derivative melting curve is obtained from which the melting temperature Tm was determined. ΔTm values represent the differences in melting temperature relative to the DMSO control. All described melting temperatures are based on three independent experiments from which the average and standard deviations were determined using excel. […]

T1 sequence (P61981 whole entry, other chains not shown): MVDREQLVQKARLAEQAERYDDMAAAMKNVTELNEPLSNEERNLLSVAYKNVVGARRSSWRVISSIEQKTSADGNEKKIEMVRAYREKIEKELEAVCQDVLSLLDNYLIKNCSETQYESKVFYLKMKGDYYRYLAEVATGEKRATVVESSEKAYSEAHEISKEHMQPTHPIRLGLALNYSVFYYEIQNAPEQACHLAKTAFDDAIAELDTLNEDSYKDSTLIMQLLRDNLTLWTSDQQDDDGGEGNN

Q: For CN(C)CCSSCCN(C)C(=O)c1ccc(C=O)c(F)c1 [compound 5], which “consumption of apo-14-3-3γ into crosslinked ternary complex” value is on record?
A: near quantitative consumption of apo-14-3-3γ

Q: What about the “crosslinking of 14-3-3/ERRγ in isolation” value (only ERRγ phosphopeptide 10 μM, 5 50 μM) of the same compound?
A: ~70%

Q: With CN(C)CCSSCCN(C)C(=O)c1cc(Br)cc(C=O)c1 [compound 10] as the compound, how does the “consumption of apo-14-3-3γ into crosslinked ternary complex” value read?
A: complete consumption of apo-14-3-3γ was not observed
